# Test results: ChEMBL document CHEMBL4823303, “Discovery of Small Molecule Entry Inhibitors Targeting the Fusion Peptide of SARS-CoV-2 Spike Protein” (ACS Med Chem Lett, 2021); call rule not given here
# pIC50: −log10 of the molar value.
# Columns and labels:
# SARS-CoV-2 [1] = test: Antiviral activity against pseudovirus SARS-CoV-2 spike protein infected in HEK293 cells expressing ACE2 assessed as reduction in pseudotyped particle entry incubated for 48 hrs incubation by luminescence assay; assay type: functional, organism-based; settings: Severe acute respiratory syndrome coronavirus 2, HEK293, 48 h
# SARS-CoV-2 [2] = test: Antiviral activity against pseudovirus SARS-CoV-2 spike protein infected in HEK293 cells expressing ACE2 assessed as reduction in pseudotyped particle entry incubated for 48 hrs incubation by luminescence assay relative to control; assay type: functional, Severe acute respiratory syndrome coronavirus 2
# [3] = system: Vesicular stomatitis virus; test: microbe, parasite or virus in culture; assay type: functional, organism-based; settings: for pIC50: Vesicular stomatitis virus, read-out: IC50
# SARS-CoV-2 [4] = test: microbe, parasite or virus in culture; assay type: functional, organism-based, Vero E6; settings: Severe acute respiratory syndrome coronavirus 2, Vero C1008, 72 h
# HEK293 = test: Cytotoxicity against HEK293 cells expressing ACE2 cells assessed as reduction in cell viability; settings: Homo sapiens
# [5] = Cytotoxicity against HEK293 cells expressing ACE2 cells assessed as reduction in cell viability relative to control; settings: human
# Vero C1008 = test: Cytotoxicity against African green monkey Vero E6 cells expressing ACE2 cells assessed as reduction in cell viability; settings: Chlorocebus sabaeus
# [6] = Cytotoxicity against African green monkey Vero E6 cells expressing ACE2 cells assessed as reduction in cell viability relative to control; settings: chlorocebus sabaeus
# SARS-CoV-2 [7] = assay type: functional, Severe acute respiratory syndrome coronavirus 2, Vero E6; settings: time 72 hrs
# SARS-CoV = test: microbe, parasite or virus in culture; assay type: functional, organism-based; settings: Severe acute respiratory syndrome-related coronavirus, Huh-7, 24 h
Compound,pIC50 (SARS-CoV-2 [1]),Efficacy (SARS-CoV-2 [2]) [%],pIC50 [3],pIC50 (SARS-CoV-2 [4]),pIC50 (HEK293),Emax [5] [%],pIC50 (Vero C1008),Emax [6] [%],Efficacy (SARS-CoV-2 [7]) [%],pIC50 (SARS-CoV),IC50 [3]
CC(Nc1nc(N2CCOCC2)nc2ccccc12)c1ccccc1 (configuration not stated),4.65,94.1,< 4.24,< 4.70,< 4.24,25.1,< 4.70,23,,,
C[C@H](Nc1nc(N2CCNCC2)nc2ccccc12)c1ccccc1,4.80,94.3,< 4.24,,< 4.24,0,< 4.70,0,87.8,,
CC(Nc1nc(N2CCC(=O)CC2)nc2ccccc12)c1ccccc1 (configuration not stated),4.50,100,< 4.24,4.89,< 4.24,0,,0,48.5,,
CC(Nc1nc(N2CCNCC2)nc2ccccc12)c1c(F)cccc1F (configuration not stated),4.65,88.9,< 4.24,4.85,< 4.24,0,,12.8,79.9,5.78,
CC(Nc1nc(N2CCNCC2)nc2cc(Br)ccc12)c1ccccc1 (configuration not stated),5.05,97.1,5.10,5.10,4.40,72.1,4.85,91.5,139.9,,
CC(Nc1nc(N2CCNCC2)nc2ccc(F)cc12)c1ccccc1 (configuration not stated),4.80,70.6,< 4.24,5.10,< 4.24,0,< 4.70,11.8,101.3,,
CC(Nc1nc(N2CCNCC2)nc2ccccc12)c1ccccc1N (configuration not stated),,70.2,4.40,4.90,< 4.24,0,< 4.70,0,31.5,,
CC(Nc1nc(N2CCNCC2)nc2cc(-c3ccccc3)ccc12)c1ccccc1 (configuration not stated),4.90,,4.45,5.35,4.40,96.7,5.10,116,79,,
CC(Nc1nc(N2CCNCC2)nc2ccc(-c3ccccc3)cc12)c1ccccc1 (configuration not stated),4.80,100,< 4.24,5.10,< 4.24,20.8,4.85,88.5,81.6,,
CN1CCC[C@@H]1CCO[C@](C)(c1ccccc1)c1ccc(Cl)cc1.O=C(O)/C=C/C(=O)O [CLEMASTINE FUMARATE],,,,,,,,,,,Not Active
